# According to article PMC6274026 (Molecules, 2016):
# “And” between values parts separate entries of the source, which are not always exact repeats. Equal entries are not always repeated. Where two headings read alike, the source gives them in different places.
# Columns and labels:
# BT-549 [1] = details: for percentage of survival: 72 h; for Potency compared to control POD: BT-549, relative to POD; for Potency compared to control VP-16: BT-549, relative to VP-16
# MCF-10A [2] = details: for percentage of survival: 0.08 µg/mL, 72 h; for Potency compared to control POD: relative to POD; for Potency compared to control VP-16: relative to VP-16
# MDA-MB-231 [3] = assay: Clonogenicity (recovery) assay, 72 h post-treatment, SRB; details: for percentage of recovery: 72 h post-treatment; for effect on proliferation and recovery after treatment: MDA-MB-231, 10 and 2 µg/mL, in words
# MCF-7 [4] = assay: as above; details: for percentage of recovery: 72 h post-treatment
# in vitro = details: human, Cytotoxic activity IC50, MCF-10A, 72 h, mean of three independent experiments ± S.D.
# anthrax lethal toxin = details: qHTS, ME-180 cells, in words; cited from earlier work
# MDA-MB-231 [5] = details: for Selectivity index: IC50 MCF-10A / IC50 MDA-MB-231; for percentage of survival: 72 h; for Potency compared to control POD: MDA-MB-231, relative to POD; for Potency compared to control VP-16: MDA-MB-231, relative to VP-16; for IC50: read-out: Cytotoxic activity IC50, MDA-MB-231, 72 h, mean of three independent experiments ± S.D.
# [6] = tested on: human protein tyrosyl-DNA phosphodiesterase 1 (TDP1); set-up: method as in ref 29 = [29]; 29. NCBI, National Center for Biotechnology Information PubChem BioAssay Database 2013 AID=686981 Available online: https://pubchem.ncbi.nlm.nih.gov/bioassay/686981 (accessed on 30 March 2016); details: qHTS, DT40 cell line, in words; cited from earlier work
# BT-549 [7] = assay: Clonogenicity (recovery) assay, 72 h post-treatment, SRB; details: for percentage of recovery: 72 h post-treatment; for effect on proliferation and recovery after treatment: BT-549, 10 and 2 µg/mL, in words
# MCF-10A [8] = assay: as above; details: for percentage of recovery: MCF-10A, 0.08 µg/mL, 72 h post-treatment
# MCF-7 [9] = details: for Selectivity index: IC50 MCF-10A / IC50 MCF-7; for percentage of survival: 72 h; for Potency compared to control POD: MCF-7, relative to POD; for Potency compared to control VP-16: MCF-7, relative to VP-16; for IC50: read-out: Cytotoxic activity IC50, MCF-7, 72 h, mean of three independent experiments ± S.D.
# [10] = Water solubility (observation in culture medium); type: physicochemical; details: in words
smiles,measurement,setting,value
"COc1cc([C@@H]2c3cc4c(cc3[C@H](OC(C)=O)[C@H]3COC(=O)[C@H]23)OCO4)cc(OC)c1OC [Compound 2, acetylpodophyllotoxin]",percentage of survival,"BT-549 [1]; BT-549, 0.08 µg/mL",96% ± 5.5%
same,percentage of survival,"BT-549 [1]; BT-549, 0.4 µg/mL",61% ± 10.6%
same,Potency compared to control POD,BT-549 [1],0.465
same,Potency compared to control VP-16,BT-549 [1],14.1 and 14.151
same,selectivity according to the selectivity criteria (SI ≥ 10 selective),"BT-549 [1]; BT-549 vs MCF-10A, in words",selective compound
same,IC50,"BT-549 [1]; read-out: Cytotoxic activity IC50, BT-549, 72 h, mean of three independent experiments ± S.D.",11 ± 4 nM
same,percentage of survival,MCF-10A [2],61% ± 7.8%
same,Potency compared to control POD,MCF-10A [2],0.062
same,Potency compared to control VP-16,MCF-10A [2],0.147
same,percentage of recovery,"MDA-MB-231 [3]; MDA-MB-231, 0.4 µg/mL",36% ± 16.8%
same,percentage of recovery,"MDA-MB-231 [3]; MDA-MB-231, 0.8 µg/mL",194% ± 14.7%
same,effect on proliferation and recovery after treatment,MDA-MB-231 [3],completely inhibited proliferation and prevented recovery
same,percentage of recovery,"MCF-7 [4]; MCF-7, 0.08 µg/mL",209% ± 12.4%
same,effect on proliferation and recovery after treatment,"MCF-7 [4]; MCF-7, 10, 2, and 0.4 µg/mL, in words",dose-dependently inhibited the proliferation and the recovery of cells
same,IC50 at 72 h,in vitro,318 ± 12 nM
same,effect on anthrax lethal toxin internalization,anthrax lethal toxin,interferes in the internalization process
same,Selectivity index,MDA-MB-231 [5],1.77
same,percentage of survival,"MDA-MB-231 [5]; MDA-MB-231, 0.08 µg/mL",101% ± 5.7%
same,percentage of survival,"MDA-MB-231 [5]; MDA-MB-231, 0.4 µg/mL",21% ± 0.6%
same,Potency compared to control POD,MDA-MB-231 [5],0.136
same,Potency compared to control VP-16,MDA-MB-231 [5],0.217
same,IC50,MDA-MB-231 [5],180 ± 3 nM
same,inhibitory activity against TDP1,[6],inhibitory activity
same,percentage of recovery,"BT-549 [7]; BT-549, 0.4 µg/mL",around 114% ± 18.5%
same,percentage of recovery,"BT-549 [7]; BT-549, 0.8 µg/mL (same concentrations)",~191% ± 27.1%
same,effect on proliferation and recovery after treatment,BT-549 [7],completely inhibited proliferation and prevented recovery
same,percentage of recovery,MCF-10A [8],85% ± 4.5%
same,effect on proliferation and recovery after treatment,"MCF-10A [8]; MCF-10A, 10, 2, and 0.4 µg/mL, in words",dose-dependently inhibited the proliferation and the recovery of cells
same,Selectivity index,MCF-7 [9],2.42
same,percentage of survival,"MCF-7 [9]; MCF-7, 0.08 µg/mL",121% ± 10.8%
same,Potency compared to control POD,MCF-7 [9],0.135
same,Potency compared to control VP-16,MCF-7 [9],0.942
same,IC50,MCF-7 [9],132 ± 17 nM
"COc1cc(C2=C3C(=O)OC[C@@H]3[C@@H](OC(C)=O)c3cc4c(cc32)OCO4)cc(OC)c1OC [Compound 4, 7′,8′-dehydroacetylpodophyllotoxin]",percentage of survival,"BT-549 [1]; BT-549, 0.08 µg/mL",74% ± 7.4%
same,percentage of survival,"BT-549 [1]; BT-549, 0.4 µg/mL",48% ± 8.8%
same,Potency compared to control POD,BT-549 [1],0.086
same,Potency compared to control VP-16,BT-549 [1],2.6 and 2.604
same,Selectivity index,BT-549 [1]; IC50 MCF-10A / IC50 BT-549,7.62
same,percentage of survival,MCF-10A [2],about 55% ± 17.2%
same,Potency compared to control POD,MCF-10A [2],0.042
same,Potency compared to control VP-16,MCF-10A [2],0.100
same,percentage of recovery,"MDA-MB-231 [3]; MDA-MB-231, 0.08 µg/mL",180% ± 13.5%
same,percentage of recovery,"MDA-MB-231 [3]; MDA-MB-231, 0.4 µg/mL",75% ± 12.2%
same,effect on proliferation and recovery after treatment,MDA-MB-231 [3],inhibitory effect on the survival and recovery
same,percentage of recovery,"MCF-7 [4]; MCF-7, 0.08 µg/mL",177% ± 15.6%
same,percentage of recovery,"MCF-7 [4]; MCF-7, 0.4 µg/mL",57% ± 14.5%
same,percentage of recovery,"MCF-7 [4]; MCF-7, 2 µg/mL",29% ± 0.7%
same,water solubility,[10],low water solubility
same,IC50 at 72 h,in vitro,468 ± 2 nM
same,Selectivity index,MDA-MB-231 [5],2.90
same,percentage of survival,"MDA-MB-231 [5]; MDA-MB-231, 0.08 µg/mL",93% ± 6.9%
same,percentage of survival,"MDA-MB-231 [5]; MDA-MB-231, 0.4 µg/mL",57% ± 1.4%
same,Potency compared to control POD,MDA-MB-231 [5],0.151
same,Potency compared to control VP-16,MDA-MB-231 [5],0.242
same,IC50,MDA-MB-231 [5],160 nM and 161 nM
same,percentage of recovery,"BT-549 [7]; BT-549, 0.08 µg/mL",176% ± 18%
same,percentage of recovery,"BT-549 [7]; BT-549, 0.4 µg/mL",98% ± 27.9%
same,effect on proliferation and recovery after treatment,BT-549 [7],inhibitory effect on the survival and recovery
same,percentage of recovery,MCF-10A [8],160% ± 21%
same,Selectivity index,MCF-7 [9],1.32
same,percentage of survival,"MCF-7 [9]; MCF-7, 0.08 µg/mL",96% ± 13.5%
same,percentage of survival,"MCF-7 [9]; MCF-7, 0.4 µg/mL",21% ± 7.2%
same,percentage of survival,"MCF-7 [9]; MCF-7, 2 µg/mL",11% ± 7.6%
same,Potency compared to control POD,MCF-7 [9],0.050
same,Potency compared to control VP-16,MCF-7 [9],0.351
same,IC50,MCF-7 [9],350 nM and 353 nM
